Legend:
[1] = test system: Isolated cardiac myocytes from nNOS deficient rats; experiment: Isolated cardiac myocytes: sarcomere length and systolic calcium transient responses; type: cell-based; settings: versus baseline; for sarcomere length (SL), a measure of myocardial contraction (% change from baseline): FIG. 1A; for systolic calcium transient (% change from baseline): FIG. 1B
Description: Isolated cardiac myocytes from nNOS deficient rats (known to have increased xanthine oxidase activity), were evaluated for responses at baseline (BL or bl), then to allopurinol, then to nitrated allopurinol. The concentration of allopurinol used was 0.5×10^−3 M. The concentration of nitrated allopurinol used was 10^−4M. Evaluation was carried out for sarcomere length (SL), a measure of myocardial contraction, and for systolic calcium transient which drives myocardial contraction. The results for evaluation of sarcomere length are shown in FIG. 1A and results for evaluation of systolic calcium transient are shown in FIG. 1B.

leg pain and diabetes = experiment: Patient case, leg pain and diabetes (Working Example XII); type: in vivo; settings: 300 mg/day
hyperlipidemia = experiment: Patient case, hyperlipidemia with calcification of coronaries and aorta (Working Example VI); type: in vivo; settings: 300 mg/day; over the following two years
ALS = experiment: Patient case, ALS (Working Example XIII); type: in vivo; settings: 300 mg/day; after three weeks
Description: A person with ALS with progressive deterioration, stabilizes after three weeks at 300 mg/day of nitrated allopurinol (16).

Parkinson's disease = experiment: Patient case, Parkinson's disease (Working Example X); type: in vivo; settings: 300 mg/day; after three weeks; treated with L-dopa
Excerpt: A person with Parkinson's disease treated with L-dopa has persistent tremor and motor problems.

dilated cardiomyopathy = experiment: Patient case, dilated cardiomyopathy (Working Example II); type: in vivo; settings: 300 mg PO BID, over the ensuing week
Excerpt: A person presents with a dilated cardiomyopathy and is begun on a standard regimen including ace inhibitors, diuretics, and digoxin with little improvement.

sickle cell disease = experiment: Patient case, sickle cell disease (Working Example V); type: in vivo; settings: 300 mg/day, over the following year
Description: A person with sickle cell disease presents with pulmonary hypertension and LFT abnormalities. They had had four admissions to the emergency in the past year with painful crisis. They are begun n 300 mg/day of nitrated allopurinol (16) with a decrease in their pulmonary artery pressure over the following year from a mean of 35 mm Hg to 30 mm Hg.

[2] = test system: asthmatic with frequent exacerbations; experiment: Patient case, asthma (Working Example XIV); type: in vivo; settings: 300 mg/day
Description: A asthmatic with frequent exacerbations is begun on 300 mg/day nitrated allopurinol (16).

[3] = test system: congestive heart failure and a dilated cardiomyopathy; experiment: Patient case, congestive heart failure and dilated cardiomyopathy (Working Example IX); type: in vivo; settings: 300 mg POQD, one week later
Description: A person with congestive heart failure and a dilated cardiomyopathy is begun on nitrated allopurinol (16), 300 mg POQD. One week later, their ejection fraction had improved from 35% to 40%, their blood pressure had decreased from 130/80 to 110/80, and […] pO2 has improved from 70 to 80 mm Hg on room air.

[4] = test system: crush wound to their left lower extremity, ischemic for six hours; experiment: Patient case, ischemic crush wound with revascularization (Working Example IV); type: in vivo; settings: emergency surgery
Excerpt: A person has a crush wound to their left lower extremity and undergoes emergency surgery.

[5] = test system: bleomycin-induced lung injury; experiment: Patient case, bleomycin-induced lung injury (Working Example VII); type: in vivo; settings: 300 PO BID; over the following week; on 50% oxygen; from 60 (on 100% oxygen)
Excerpt: A person with bleomycin-induced lung injury is begun on nitrated allopurinol (16), 300 PO BID. The PO2 improves from 60 (on 100% oxygen) to 65 mm Hg on 50% oxygen over the following week.

Alzheimer's disease = experiment: Patient case, Alzheimer's disease (Working Example XI); type: in vivo; settings: 300 mg/day; after 3 months
Description: A person with Alzheimer's disease is begun on 300 mg/day nitrated allopurinol (16). Their memory and cognitive function stabilizes after 3 months.

class 3 angina = experiment: Patient case, class 3 angina (Working Example III); type: in vivo; settings: 300 mg/day; over two weeks; class 3 before treatment
Description: A person with class 3 angina is begun on nitrated allopurinol (16), 300 mg/day.

Oc1ncnc2[nH]ncc12 [allopurinol, reference compound]
sarcomere length (SL), a measure of myocardial contraction (% change from baseline) ([1]; allopurinol 0.5×10^−3 M): rise
systolic calcium transient (% change from baseline) ([1]; allopurinol 0.5×10^−3 M): rise

O=c1c2cnn(CCCO[N+](=O)[O-])c2ncn1CCCO[N+](=O)[O-] [nitrated allopurinol (16), 1,5-bis(3-nitrooxypropyl)-1,5-dihydro-4H-pyrazolo[3,4-d]pyrimidin-4-one]
pain (leg pain) (leg pain and diabetes): pain decreases
distance they can walk (leg pain and diabetes; unresponsive to treatment before): improves
disease (calcification of coronaries and aorta) (hyperlipidemia): mild regression of their disease
progressive deterioration (ALS): stabilizes
symptoms (persistent tremor and motor problems) (Parkinson's disease): symptoms improve
shortness of breath (dilated cardiomyopathy): decrease in a shortness of breath
left ventricular function (dilated cardiomyopathy; on standard regimen with little improvement): improvement of left ventricular function
LFT abnormalities (sickle cell disease): resolve
painful crisis (sickle cell disease; four admissions with painful crisis in the past year): only one painful crisis
pulmonary artery pressure (mean) (sickle cell disease; from a mean of 35 mm Hg): 30 mm Hg
steroid use [2]: successfully tapered
symptoms on angina [3]: decreased
ejection fraction ([3]; from 35%): 40%
blood pressure ([3]; from 130/80): 110/80
pO2 ([3]; on room air, from 70): 80 mm Hg
sarcomere length (SL), a measure of myocardial contraction (% change from baseline) ([1]; nitrated allopurinol 10^−4M): increase obtained for nitrated allopurinol being greater than increase obtained for allopurinol
systolic calcium transient (% change from baseline) ([1]; nitrated allopurinol 10^−4M): increase obtained for nitrated allopurinol being greater than increase obtained for allopurinol
aggravation of injury following revascularization [4]: no aggravation of injury following revascularization
PO2 [5]: 65 mm Hg
memory and cognitive function (Alzheimer's disease): stabilizes
angina classification (class 3 angina): improved to class 2

Source: patent publication US7956062B2, “Reactive oxygen generating enzyme inhibitor with nitric oxide bioactivity and uses thereof” (Duke University, priority 2004, dated 2011)
